Measured values as given in paper PMC7093416, “Selective USP7 inhibition elicits cancer cell killing through a p53-dependent mechanism” (Scientific Reports, 2020).

Target: T1, BZW2 (Homo sapiens, UniProt Q9Y6E2)
T1 construct: endogenous in cells; host or cells: HEK 293AD lysate
T1 sequence (Q9Y6E2 1-419): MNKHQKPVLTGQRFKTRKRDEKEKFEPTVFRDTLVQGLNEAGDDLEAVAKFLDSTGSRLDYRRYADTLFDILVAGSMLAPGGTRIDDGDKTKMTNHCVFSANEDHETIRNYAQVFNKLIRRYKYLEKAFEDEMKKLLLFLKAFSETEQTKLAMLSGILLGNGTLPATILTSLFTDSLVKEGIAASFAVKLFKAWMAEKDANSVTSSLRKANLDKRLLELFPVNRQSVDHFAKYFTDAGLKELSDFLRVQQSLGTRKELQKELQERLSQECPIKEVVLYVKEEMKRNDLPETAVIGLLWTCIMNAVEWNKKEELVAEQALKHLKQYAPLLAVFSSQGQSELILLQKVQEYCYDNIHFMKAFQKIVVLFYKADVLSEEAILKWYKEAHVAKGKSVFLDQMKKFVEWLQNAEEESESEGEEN
Assay: XL177A-DTB chemoproteomic profiling with XL177A competition, BZW2
Format: binding
Settings: BZW2 reporter ion intensity
Method: HEK 293AD cells were lysed as described above, and the lysate was cleared by centrifugation. […] SDS was added to a final concentration of 1.2% (27.2 μL of a 10% stock), and denatured by heating to 80 °C for 5 minutes. After cooling to RT, 1125 μL 1X PBS was added to dilute the final SDS concentration to 0.2%. 50 μL streptavidin agarose slurry was added to each sample, followed by incubation at RT for 3 hours. After streptavidin enrichment, samples were washed vigorously (2×0.2% SDS, 3x PBS, 3x ddH2O). After the final wash, all supernatant was removed using a flat-bottom tip, and the resin was flash frozen and stored at −80 °C until workup for TMT labeling.
To remove rapigest, recovered supernatants were acidified with 10% TFA, incubated at 37 °C for 45 minutes, and centrifuged at 14,000 rpm for 15 minutes at 4 °C. Peptides were then desalted by C18, and dried by vacuum centrifugation. Dried peptides were reconstituted in 50 mM pH8.0 TEAB and labeled with TMT reagent at RT for 1 hour. TMT reactions were pooled and treated with hydroxylamine according to the manufacturer’s instructions. Peptide mixtures were then dried, reconstituted in 50 mM ammonium bicarbonate and desalted by SP3[53]. Eluted peptides were then analyzed by nanoflow LC-MS/MS as described[64] with a NanoAcquity UPLC system (Waters, Milford, MA) interfaced to a QExactive HF mass spectrometer (Thermofisher Scientific, San Jose, CA). TMT labeled peptides were injected onto a precolumn (4 cm POROS 10R2, Applied Biosystems, Framingham, MA), resolved on an analytical column (30 µm I.D. × 50 cm packed with 5 µm Monitor C18) and introduced to the mass spectrometer by ESI (spray voltage = 3.5 kV, flow rate ~30 nL/min). The mass spectrometer was operated in data dependent mode such that the 15 most abundant ions in each MS scan (m/z 300–2000, 120 K resolution, target = 3E6, lock mass for 445.120025 enabled) were subjected to MS/MS (m/z 100–2000, 30 K resolution, target = 1E5, max fill time = 100 ms). Dynamic exclusion was selected with a repeat count of 1 and an exclusion time of 30 seconds. MS/MS data was extracted to.mgf using mulitplierz scripts[54],[55] and searched against a forward-reverse human NCBI refseq database using Mascot version 2.6. Search parameters specified fixed carbamidomethylation of cysteine, fixed N-terminal and lysine TMT labelling, and variable oxidation (methionine). Additional multiplierz scripts were used to filter results to 1% FDR and derive protein-level aggregate reporter ion intensities using peptides mapping uniquely into the genome.

[1] = XL177A-DTB pulldown, HEK293AD lysate pre-treated 100nM XL177A
[2] = XL177A-DTB pulldown, HEK293AD lysate pre-treated 1uM XL177A
[3] = XL177A-DTB pulldown, HEK293AD lysate pre-treated 10uM XL177A
[4] = average of Run 1 and Run 2, 100nM XL177A
[5] = average of Run 1 and Run 2, 1uM XL177A
[6] = average of Run 1 and Run 2, 10uM XL177A

Run 1 100nM 1 [1]: 6095061
Run 1 100nM 2 [1]: 5618739
Run 1 100nM 3 [1]: 5891848
Run 2 100nM 1 [1]: 6367486
Run 2 100nM 2 [1]: 5770311
Run 2 100nM 3 [1]: 6244557
Run 1 1uM 1 [2]: 5512643
Run 1 1uM 2 [2]: 3810437
Run 1 1uM 3 [2]: 5451627
Run 2 1uM 1 [2]: 5833621
Run 2 1uM 2 [2]: 3936167
Run 2 1uM 3 [2]: 5735390
Run 1 10uM 1 [3]: 4021260
Run 1 10uM 2 [3]: 4066194
Run 2 10uM 1 [3]: 4140296
Run 2 10uM 2 [3]: 4394498
AVE 100nM 1 [4]: 6231274
AVE 100nM 2 [4]: 5694525
AVE 100nM 3 [4]: 6068202
AVE 1uM 1 [5]: 5673132
AVE 1uM 2 [5]: 3873302
AVE 1uM 3 [5]: 5593508
AVE 10uM 1 [6]: 4080778
AVE 10uM 2 [6]: 4230346
Structure (SMILES): CN1CCN(CCC(=O)Nc2ccc3c(=O)n(CC4(O)CCN(C(=O)[C@@H](CCCNC(=O)c5ccc6c(Cl)c7c(nc6c5)CCCC7)Cc5ccccc5)CC4)cnc3c2)CC1 [XL177A]
